# Results published in US20090181409A1, “Optical biosensor method for cell-cell interaction” (priority 2008, published 2009).
# Key:
# D1 cells = test: NK92 cell-induced optical signal of D1 cells (Epic RWG biosensor), modulation by pharmacological agents; assay type: cell-based, mouse; details: D1 cells pretreated with agent for 1 hour before NK cells; killer:target ratio 1; 28° C.
# Method: The impact of six pharmacological agents was examined on the NK92 cell-induced optical signal of D1 cells. […] Brefeldin A (BFA), and Camptothecin are defined above. Kp7-6 is an exocyclic cystine-knot peptide that specifically antagonizes Fas/FasL-mediated cellular apoptotic signals, for example, it can reduce 58% of FasL-induced apoptosis in Jurkat cells at 1 mg/mL. Latrunculin inhibits actin polymerization in vitro and disrupts microfilament organization as well as microfilament-mediated processes. […] Wortmannin is a potent, selective, cell-permeable and irreversible inhibitor of phosphatidylinositol 3-kinase.
# Cell culture—Natural killer cells-NK92MI and the multipotent mouse bone marrow D1 cell line were from American Type Culture Collection (Manassas, Va.). NK92MI cells were grown in RPMI medium plus 12.5% horse serum and 12.5 fetal bovine serum (FBS) and antibiotics. D1 cells were grown in Dulbecco's Modified Eagle's Medium supplemented with 10% fetal bovine serum (FBS) and antibiotics. Approximately 1×10^4 to 2×10^4 target cells of D1 in 50 μL medium were placed in each well of Epic® 384-well microplate. After cell seeding, the cells were cultured at 37° C. under air/5% CO2 until a high degree, e.g., 90% of confluence was reached (about 24 hrs). Cells were continuously cultured overnight in their corresponding media without any serum to keep cells at a quiescent state and cell confluence was over about 95%.
# Epic® system and DMR assays—Epic® beta system was used during this study. For cell-cell interaction study, target cell density was at about 95-100% confluence and the cells were finally maintained with the appropriate medium as described above. Cell number of NK92MI was counted with Beckman Coulter Particle Counter. Unless stated otherwise, a ratio of 1 between killer cells and target cells was used. NK92MI cells were suspended in RPMI plus 2% FBS. A 20 μL aliquot of NK92MI solution was added to each well of a normal 384-well microplate (Corning Inc., Corning, N.Y.). The plates of the target cells and the natural killer cells were incubated in the Epic® instrument for at least 30 minutes to reach 28° C. For pharmacological agent studies, the D1 cells were pretreated with the agents for 1 hour before NK cells were introduced. All studies were carried out at 28° C. for consistency and having the lid of the microplate continuously on except for a short period of time (e.g., about seconds) when the solution was introduced to minimize the effect of temperature fluctuation and evaporative cooling.
# RhoA = RhoA (Homo sapiens, UniProt P61586); details: cited from earlier work
# CHO-ICAM1 cells = test: NK92 cell-induced N-DMR signal of CHO-ICAM1 cells (Epic RWG biosensor), modulation by pharmacological agents; assay type: cell-based, Chinese hamster; details: CHO-ICAM1 cells pretreated with agent for 1 hour before NK cells; killer:target ratio 1; 28° C.
# From the text: The impacts of four pharmacological agents were examined on the NK92 cell-induced DMR signal of CHO-ICAM1 cells. FIG. 4 illustrate the modulation profile (response v. modulator concentration in microM) of the natural killer cell-induced DMR signal of the target cell layer by four different modulators at different doses:
# Cell culture—Natural killer cells-NK92MI, both parental CHO-K1 and engineered CHO expressing ICAM1 receptor (CHO-ICAM1) were purchased from American Type Culture Collection (Manassas, Va.). NK92MI cells were grown in RPMI medium plus 12.5% horse serum and 12.5 fetal bovine serum (FBS) and antibiotics. CHO-K1 cells and CHO-ICAM1 cells were grown in RPMI supplemented with 10% fetal bovine serum (FBS) and antibiotics. Approximately 1-2×10^4 target cells of CHO-K1 or CHO-ICAM1 in 50 μl medium were placed in each well of Epic® 384-well microplate. After cell seeding, the cells were cultured at 37° C. under air/5% CO2 until a high degree, e.g. 90%, of confluence was reached (e.g., about 24 hrs). Cells were continuously cultured for over night with their corresponding media without any serum to keep cells at a quiescent state and cell confluence was over 95%.
# Epic® system and DMR assays—An Epic® beta system was used during this study. For cell-cell interaction study, target cell density was at 95-100% confluence and the cells were finally maintained with the appropriate medium as described above. Cell number of NK92MI was counted with Beckman Coulter Particle Counter (Beckman Coulter, Fullerton, Calif.). Unless stated otherwise, a ratio of 1 between killer cells and target cells was used. NK92MI cells were suspended in RPMI plus 2% FBS. A 20-microliter solution of NK92MI was aliquoted to each well of a normal 384-well microplate (Corning Inc., Corning, N.Y.). The plates of the target-cell and the natural killer cell were incubated in the Epic® instrument for at least 30 minutes to reach 28° C. For pharmacological agent studies, the Icam1 cells had been pretreated with the agents for 1 hour before the NK cells were introduced. All studies were carried out at 28° C. with the lid of the microplate on except for a short period of time (e.g., about several seconds) when the solution was introduced, in order to minimize the effect of temperature fluctuation and evaporative cooling.
# RhoA, sequence (P61586 whole entry, species assumed): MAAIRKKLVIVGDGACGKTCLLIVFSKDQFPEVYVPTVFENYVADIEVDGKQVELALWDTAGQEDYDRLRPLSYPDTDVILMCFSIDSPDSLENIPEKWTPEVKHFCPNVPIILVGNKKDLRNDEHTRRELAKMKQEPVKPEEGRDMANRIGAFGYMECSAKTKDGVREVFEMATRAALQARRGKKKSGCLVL
structure (smiles),measurement,setting,value
CCN(CC)CCCC(C)Nc1nc(C)cc(Nc2ccc3nc(C)cc(N)c3c2)n1 (racemic) [Rac1 inhibitor],effect on NK92-induced signals of D1 cells,D1 cells,dose dependently increases
same,effect on RhoA activation,RhoA,no effect
"C[C@H]1CCC/C=C/[C@@H]2C[C@H](O)C[C@H]2[C@H](O)/C=C/C(=O)O1 [BFA, Brefeldin A]",effect on NK92-induced N-DMR of CHO-ICAM1 cells,CHO-ICAM1 cells,dose dependently increases
same,effect on NK92-induced signals of D1 cells,D1 cells,dose dependently increases
N#CC(=C(/N)Sc1ccccc1N)/C(C#N)=C(\N)Sc1ccccc1N [U0126],effect on NK92-induced N-DMR of CHO-ICAM1 cells,CHO-ICAM1 cells,dose-dependently suppressed
"CC[C@@]1(O)C(=O)OCc2c1cc1n(c2=O)Cc2cc3ccccc3nc2-1 [camptothecin, Camptothecin]",effect on NK92-induced N-DMR of CHO-ICAM1 cells,CHO-ICAM1 cells,dose dependently increases
same,effect on NK92-induced signals of D1 cells,D1 cells,dose dependently increases
COC(=O)CC[C@H](NC(=O)[C@H](CC(=O)OC)NC(=O)OCc1ccccc1)C(=O)N[C@H](C(=O)N[C@@H](CC(=O)OC)C(=O)CF)C(C)C [caspase 3 inhibitor],effect on NK92-induced N-DMR of CHO-ICAM1 cells,CHO-ICAM1 cells,little effect
C/C1=C/C(=O)O[C@@H]2C[C@@H](CC[C@H](C)/C=C\C=C\CC1)O[C@@](O)([C@@H]1CSC(=O)N1)C2 [latrunculin A],effect on NK92-induced signals of D1 cells,D1 cells,dose dependently increases
"CC[C@]1(O)C[C@@H]2CN(CCc3c([nH]c4ccccc34)[C@@](C(=O)OC)(c3cc4c(cc3OC)N(C)[C@H]3[C@@](O)(C(=O)OC)[C@H](OC(C)=O)[C@]5(CC)C=CCN6CC[C@]43[C@@H]65)C2)C1 [vinblastine, Vinblastine]",effect on NK92-induced N-DMR of CHO-ICAM1 cells,CHO-ICAM1 cells,dose dependently increases
